From ChEMBL document CHEMBL1201861, “Genomics of Drug Sensitity in Cancer screening data, Wellcome Trust Sanger Institute”

Experiments:
Assay in all cases: cells
COLO-800 = type: functional, cell-based, Homo sapiens; conditions: Homo sapiens, COLO-800;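 also: growth inhibition of COLO-800 cells, read out with a cell viability assay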
Description: SANGER: Inhibition of human COLO-800 cell growth in a cell viability assay.

COLO-829 = type: functional, cell-based, Homo sapiens; conditions: Homo sapiens, COLO-829
Description: SANGER: Inhibition of human COLO-829 cell growth in a cell viability assay.

Calu-6 = type: functional, cell-based, Homo sapiens; conditions: Homo sapiens, Calu-6;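 also: growth of human Calu-6 cells, read out by a cell viability assay, IC50 marking inhibition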
Description: SANGER: Inhibition of human Calu-6 cell growth in a cell viability assay.

D283 Med = type: functional, cell-based, Homo sapiens; conditions: Homo sapiens, D283 Med
Description: SANGER: Inhibition of human D-283MED cell growth in a cell viability assay.

D-392MG = type: functional, cell-based, Homo sapiens; conditions: Homo sapiens, D-392MG
DB = type: functional, cell-based, Homo sapiens; conditions: Homo sapiens, DB
Description: SANGER: Inhibition of human DB cell growth in a cell viability assay.

ES8 = type: functional, cell-based, Homo sapiens; conditions: Homo sapiens, ES8;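 also: growth inhibition of human ES8 cells, read out with a cell viability assay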
Description: SANGER: Inhibition of human ES8 cell growth in a cell viability assay.

EW-1 = type: functional, cell-based, Homo sapiens; conditions: Homo sapiens, EW-1
Description: SANGER: Inhibition of human EW-1 cell growth in a cell viability assay.

EW-11 = type: functional, cell-based, Homo sapiens; conditions: Homo sapiens, EW-11;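 also: growth inhibition of human EW-11 cells, measured with a cell viability assay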
Description: SANGER: Inhibition of human EW-11 cell growth in a cell viability assay.

EW-16 = type: functional, cell-based, Homo sapiens; conditions: Homo sapiens, EW-16;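 also: growth inhibition of human EW-16 cells, read out as cell viability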
Description: SANGER: Inhibition of human EW-16 cell growth in a cell viability assay.

EOL1 = type: functional, cell-based, Homo sapiens; conditions: Homo sapiens, EOL1;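 also: growth inhibition of EoL-1 cells, read out by a cell viability assay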
Description: SANGER: Inhibition of human EoL-1-cell cell growth in a cell viability assay.

GAK = type: functional, cell-based, Homo sapiens; conditions: Homo sapiens, GAK;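 also: cell growth inhibition read out by a cell viability assay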
Description: SANGER: Inhibition of human GAK cell growth in a cell viability assay.

HCC 2998 = type: functional, cell-based, Homo sapiens; conditions: Homo sapiens, HCC 2998;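 also: growth inhibition of human HCC2998 cells, measured with a cell viability read-out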
Description: SANGER: Inhibition of human HCC2998 cell growth in a cell viability assay.

HCE-4 = type: functional, cell-based, Homo sapiens; conditions: Homo sapiens, HCE-4;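 also: cell viability assay measuring inhibition of growth in the human HCE-4 cell line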
Description: SANGER: Inhibition of human HCE-4 cell growth in a cell viability assay.

HDLM-2 = type: functional, cell-based, Homo sapiens; conditions: Homo sapiens, HDLM-2;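 also: cell viability assay measuring suppression of HDLM-2 proliferation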
Description: SANGER: Inhibition of human HDLM-2 cell growth in a cell viability assay.

HH = type: functional, cell-based, Homo sapiens; conditions: Homo sapiens, HH
Description: SANGER: Inhibition of human HH cell growth in a cell viability assay.

HL-60 = type: functional, cell-based, Homo sapiens; conditions: Homo sapiens, HL-60;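 also: growth inhibition of human HL-60 cells, read out with a cell viability assay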
Description: SANGER: Inhibition of human HL-60 cell growth in a cell viability assay.

JAR = type: functional, cell-based, Homo sapiens; conditions: Homo sapiens, JAR;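 also: growth inhibition of human JAR cells determined with a cell viability assay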
Description: SANGER: Inhibition of human JAR cell growth in a cell viability assay.

KM-H2 = type: functional, cell-based, Homo sapiens; conditions: Homo sapiens, KM-H2;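 also: growth inhibition of KM-H2 cells, read out by a cell viability assay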
Description: SANGER: Inhibition of human KM-H2 cell growth in a cell viability assay.

KNS-42 = type: functional, cell-based, Homo sapiens; conditions: Homo sapiens, KNS-42;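 also: growth inhibition of KNS-42 cells, read out with a cell viability assay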
Description: SANGER: Inhibition of human KNS-42 cell growth in a cell viability assay.

KS-1 = type: functional, cell-based, Homo sapiens; conditions: Homo sapiens, KS-1;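 also: growth inhibition of KS-1 cells, read out with a cell viability assay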
Description: SANGER: Inhibition of human KS-1 cell growth in a cell viability assay.

KURAMOCHI = type: functional, cell-based, Homo sapiens; conditions: Homo sapiens, KURAMOCHI;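 also: growth inhibition of KURAMOCHI cells, read out with a cell viability assay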
Description: SANGER: Inhibition of human KURAMOCHI cell growth in a cell viability assay.

LAN-6 = type: functional, cell-based, Homo sapiens; conditions: Homo sapiens, LAN-6;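 also: growth inhibition of LAN-6 cells, determined with a cell viability assay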
Description: SANGER: Inhibition of human LAN-6 cell growth in a cell viability assay.

LB771-HNC = type: functional, cell-based, Homo sapiens; conditions: Homo sapiens, LB771-HNC;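 also: growth inhibition of LB771-HNC human cells, read out with a cell viability assay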
Description: SANGER: Inhibition of human LB771-HNC cell growth in a cell viability assay.

LOX IMVI = type: functional, cell-based, Homo sapiens; conditions: Homo sapiens, LOX IMVI
Description: SANGER: Inhibition of human LOXIMVI cell growth in a cell viability assay.

LS-123 = type: functional, cell-based, Homo sapiens; conditions: Homo sapiens, LS-123
Description: SANGER: Inhibition of human LS-123 cell growth in a cell viability assay.

ML-2 = type: functional, cell-based, Homo sapiens; conditions: Homo sapiens, ML-2;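 also: growth inhibition of ML-2 cells, measured with a cell viability readout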
Description: SANGER: Inhibition of human ML-2 cell growth in a cell viability assay.

MZ7-mel = type: functional, cell-based, Homo sapiens; conditions: Homo sapiens, MZ7-mel;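 also: growth inhibition of human MZ7-mel cells, measured by a cell viability assay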
Description: SANGER: Inhibition of human MZ7-mel cell growth in a cell viability assay.

NCI-H1299 = type: functional, cell-based, Homo sapiens; conditions: Homo sapiens, NCI-H1299;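 also: growth inhibition of human NCI-H1299 cells, read out by a cell viability assay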
Description: SANGER: Inhibition of human NCI-H1299 cell growth in a cell viability assay.

NCI-H1395 = type: functional, cell-based, Homo sapiens; conditions: Homo sapiens, NCI-H1395;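 also: cell viability assay read-out quantifying reduced proliferation of human NCI-H1395 cells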
Description: SANGER: Inhibition of human NCI-H1395 cell growth in a cell viability assay.

NCI-H720 = type: functional, cell-based, Homo sapiens; conditions: Homo sapiens, NCI-H720;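 also: growth inhibition of human NCI-H720 cells determined by a cell viability assay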
Description: SANGER: Inhibition of human NCI-H720 cell growth in a cell viability assay.

SHP77 = type: functional, cell-based, Homo sapiens, SHP-77; conditions: Homo sapiens, SHP77;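 also: growth inhibition of human SHP-77 cells measured by a cell viability assay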
Description: SANGER: Inhibition of human SHP-77 cell growth in a cell viability assay.

SW982 = type: functional, cell-based, Homo sapiens; conditions: Homo sapiens, SW982;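 also: growth inhibition of SW982 cells, read out with a cell viability assay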
Description: SANGER: Inhibition of human SW982 cell growth in a cell viability assay.

8-MG-BA = type: functional, cell-based, Homo sapiens; conditions: Homo sapiens, 8-MG-BA;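 also: growth inhibition of 8-MG-BA cells, read out with a cell viability assay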
Description: SANGER: Inhibition of human 8-MG-BA cell growth in a cell viability assay.

A253 cell line = type: functional, cell-based, Homo sapiens; conditions: Homo sapiens, A253;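 also: growth inhibition of A253 cells, read out with a cell viability assay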
Description: SANGER: Inhibition of human A253 cell growth in a cell viability assay.

A388 = type: functional, cell-based, Homo sapiens; conditions: Homo sapiens, A388;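 also: growth inhibition of human A388 cells, read out with a cell viability assay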
Description: SANGER: Inhibition of human A388 cell growth in a cell viability assay.

ALL-PO = type: functional, cell-based, Homo sapiens; conditions: Homo sapiens, ALL-PO;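 also: growth inhibition of ALL-PO cells, read out by a cell viability assay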
Description: SANGER: Inhibition of human ALL-PO cell growth in a cell viability assay.

BB30-HNC = type: functional, cell-based, Homo sapiens; conditions: Homo sapiens, BB30-HNC;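 also: growth inhibition of the cultured cell line, read out by a cell viability assay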
Description: SANGER: Inhibition of human BB30-HNC cell growth in a cell viability assay.

BV-173 = type: functional, cell-based, Homo sapiens; conditions: Homo sapiens, BV-173
Description: SANGER: Inhibition of human BV-173 cell growth in a cell viability assay.

TE-12 = type: functional, cell-based, Homo sapiens; conditions: Homo sapiens, TE-12;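 also: growth inhibition of TE-12 cells, read out by a cell viability assay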
Description: SANGER: Inhibition of human TE-12 cell growth in a cell viability assay.

TE-5 = type: functional, cell-based, Homo sapiens; conditions: Homo sapiens, TE-5;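 also: inhibition of cell growth, read out by a cell viability assay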
Description: SANGER: Inhibition of human TE-5 cell growth in a cell viability assay.

TE-8 = type: functional, cell-based, Homo sapiens; conditions: Homo sapiens, TE-8;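 also: growth inhibition of TE-8 cells, measured with a cell viability readout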
Description: SANGER: Inhibition of human TE-8 cell growth in a cell viability assay.

TE-9 = type: functional, cell-based, Homo sapiens; conditions: Homo sapiens, TE-9;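 also: cell growth inhibition, measured with a cell viability readout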
Description: SANGER: Inhibition of human TE-9 cell growth in a cell viability assay.

no-11 = type: functional, cell-based, Homo sapiens; conditions: Homo sapiens;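 also: growth inhibition of human NO-11 cells, read out with a cell viability assay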
Description: SANGER: Inhibition of human no-11 cell growth in a cell viability assay.

CGTH-W-1 = type: functional, cell-based, Homo sapiens; conditions: Homo sapiens, CGTH-W-1;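 also: growth inhibition of human CGTH-W-1 cells measured by cell viability assay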
Description: SANGER: Inhibition of human CGTH-W-1 cell growth in a cell viability assay.

COLO-320-HSR = type: functional, cell-based, Homo sapiens; conditions: Homo sapiens, COLO-320-HSR;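 also: growth inhibition of COLO-320-HSR cells, determined with a cell viability assay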
Description: SANGER: Inhibition of human COLO-320-HSR cell growth in a cell viability assay.

COLO-668 = type: functional, cell-based, Homo sapiens; conditions: Homo sapiens, COLO-668
Description: SANGER: Inhibition of human COLO-668 cell growth in a cell viability assay.

COLO-684 = type: functional, cell-based, Homo sapiens; conditions: Homo sapiens, COLO-684
Description: SANGER: Inhibition of human COLO-684 cell growth in a cell viability assay.

In the case of `N#Cc1c(O)c2c(-c3ccc(-c4ccccc4O)cc3)csc2[nH]c1=O`, the IC50 (COLO-800) is reported as > 1.02 µM, the IC50 (COLO-829) is reported as > 1.02 µM and the IC50 (Calu-6) is reported as > 1.02 µM. For the same compound, the IC50 (D283 Med) was 0.386 µM, the IC50 (D-392MG) was > 1.02 µM and the IC50 (DB) was 0.489 µM. For the same compound, the IC50 (ES8) was > 1.02 µM, the IC50 (EW-1) was > 1.02 µM and the IC50 (EW-11) was > 1.02 µM. The IC50 (EW-16) was > 1.02 µM, the IC50 (EOL1) was 0.0956 µM and the IC50 (GAK) was > 1.02 µM. The IC50 (HCC 2998) was > 1.02 µM, the IC50 (HCE-4) was > 1.02 µM and the IC50 (HDLM-2) was 0.136 µM. The IC50 (HH) was 0.458 µM, the IC50 (HL-60) was 0.0974 µM and the IC50 (JAR) was > 1.02 µM. For the same compound, the IC50 (KM-H2) was 0.424 µM, the IC50 (KNS-42) was > 1.02 µM and the IC50 (KS-1) was > 1.02 µM. The IC50 (KURAMOCHI) was > 1.02 µM, the IC50 (LAN-6) was > 1.02 µM and the IC50 (LB771-HNC) was > 1.02 µM. The IC50 (LOX IMVI) was 0.0883 µM, the IC50 (LS-123) was > 1.02 µM and the IC50 (ML-2) was 0.0434 µM. For the same compound, the IC50 (MZ7-mel) was > 1.02 µM, the IC50 (NCI-H1299) was > 1.02 µM and the IC50 (NCI-H1395) was > 1.02 µM. The IC50 (NCI-H720) was > 1.02 µM, the IC50 (SHP77) was 0.383 µM and the IC50 (SW982) was > 1.02 µM. For the same compound, the IC50 (8-MG-BA) was > 1.02 µM, the IC50 (A253 cell line) was > 1.02 µM and the IC50 (A388) was > 1.02 µM. For the same compound, the IC50 (ALL-PO) was 0.0579 µM, the IC50 (BB30-HNC) was > 1.02 µM and the IC50 (BV-173) was > 1.02 µM. For the same compound, the IC50 (TE-12) was > 1.02 µM, the IC50 (TE-5) was > 1.02 µM and the IC50 (TE-8) was > 1.02 µM. For the same compound, the IC50 (TE-9) was > 1.02 µM, the IC50 (no-11) was > 1.02 µM and the IC50 (CGTH-W-1) was > 1.02 µM. For the same compound, the IC50 (COLO-320-HSR) was > 1.02 µM, the IC50 (COLO-668) was > 1.02 µM and the IC50 (COLO-684) was 0.303 µM.

In the case of `C=C(c1ccc(C(=O)O)cc1)c1cc2c(cc1C)C(C)(C)CCC2(C)C` [BEXAROTENE], the IC50 (COLO-800) is reported as > 8 µM, the IC50 (COLO-829) is reported as > 8 µM and the IC50 (Calu-6) is reported as > 8 µM. For the same compound, the IC50 (D283 Med) was > 8 µM, the IC50 (D-392MG) was > 8 µM and the IC50 (DB) was > 8 µM. The IC50 (ES8) was > 8 µM, the IC50 (EW-1) was > 8 µM and the IC50 (EW-11) was > 8 µM. For the same compound, the IC50 (EW-16) was > 8 µM, the IC50 (EOL1) was > 8 µM and the IC50 (GAK) was > 8 µM. For the same compound, the IC50 (HCC 2998) was > 8 µM, the IC50 (HCE-4) was > 8 µM and the IC50 (HDLM-2) was > 8 µM. The IC50 (HH) was > 8 µM, the IC50 (HL-60) was > 8 µM and the IC50 (JAR) was > 8 µM. For the same compound, the IC50 (KM-H2) was > 8 µM, the IC50 (KNS-42) was > 8 µM and the IC50 (KS-1) was > 8 µM. For the same compound, the IC50 (KURAMOCHI) was > 8 µM, the IC50 (LAN-6) was > 8 µM and the IC50 (LB771-HNC) was 2.5 µM. For the same compound, the IC50 (LOX IMVI) was > 8 µM, the IC50 (LS-123) was > 8 µM and the IC50 (ML-2) was > 8 µM. The IC50 (MZ7-mel) was > 8 µM, the IC50 (NCI-H1299) was > 8 µM and the IC50 (NCI-H1395) was > 8 µM. The IC50 (NCI-H720) was > 8 µM, the IC50 (SHP77) was > 8 µM and the IC50 (SW982) was > 8 µM. The IC50 (8-MG-BA) was > 8 µM, the IC50 (A253 cell line) was > 8 µM and the IC50 (A388) was > 8 µM. The IC50 (ALL-PO) was 5.86 µM, the IC50 (BB30-HNC) was > 8 µM and the IC50 (BV-173) was > 8 µM. For the same compound, the IC50 (TE-12) was > 8 µM, the IC50 (TE-5) was > 8 µM and the IC50 (TE-8) was > 8 µM. The IC50 (TE-9) was > 8 µM, the IC50 (no-11) was > 8 µM and the IC50 (CGTH-W-1) was > 8 µM. The IC50 (COLO-320-HSR) was > 8 µM, the IC50 (COLO-668) was > 8 µM and the IC50 (COLO-684) was > 8 µM.

With `CCC/C=C/C=C/C(=O)O[C@H]1/C(=C/C(=O)OC)C[C@H]2C[C@H]([C@@H](C)O)OC(=O)C[C@H](O)C[C@@H]3C[C@H](OC(C)=O)C(C)(C)[C@](O)(C[C@@H]4C/C(=C/C(=O)OC)C[C@H](/C=C/C(C)(C)[C@]1(O)O2)O4)O3` [BRYOSTATIN 1] the IC50 (COLO-800) was > 0.008 µM, the IC50 (COLO-829) was > 0.008 µM and the IC50 (Calu-6) was > 0.008 µM. For the same compound, the IC50 (D283 Med) was > 0.008 µM, the IC50 (D-392MG) was > 0.008 µM and the IC50 (DB) was > 0.008 µM. For the same compound, the IC50 (ES8) was > 0.008 µM, the IC50 (EW-1) was > 0.008 µM and the IC50 (EW-11) was > 0.008 µM. For the same compound, the IC50 (EW-16) was > 0.008 µM, the IC50 (EOL1) was > 0.008 µM and the IC50 (GAK) was > 0.008 µM. For the same compound, the IC50 (HCC 2998) was > 0.008 µM, the IC50 (HCE-4) was > 0.008 µM and the IC50 (HDLM-2) was > 0.008 µM. The IC50 (HH) was > 0.008 µM, the IC50 (HL-60) was > 0.008 µM and the IC50 (JAR) was > 0.008 µM. The IC50 (KM-H2) was > 0.008 µM, the IC50 (KNS-42) was > 0.008 µM and the IC50 (KS-1) was > 0.008 µM. For the same compound, the IC50 (KURAMOCHI) was > 0.008 µM, the IC50 (LAN-6) was > 0.008 µM and the IC50 (LB771-HNC) was > 0.008 µM. For the same compound, the IC50 (LOX IMVI) was > 0.008 µM, the IC50 (LS-123) was > 0.008 µM and the IC50 (ML-2) was > 0.008 µM. The IC50 (MZ7-mel) was > 0.008 µM, the IC50 (NCI-H1299) was > 0.008 µM and the IC50 (NCI-H1395) was > 0.008 µM. For the same compound, the IC50 (NCI-H720) was > 0.008 µM, the IC50 (SHP77) was > 0.008 µM and the IC50 (SW982) was > 0.008 µM. The IC50 (8-MG-BA) was > 0.008 µM, the IC50 (A253 cell line) was > 0.008 µM and the IC50 (A388) was > 0.008 µM. For the same compound, the IC50 (ALL-PO) was > 0.008 µM, the IC50 (BB30-HNC) was > 0.008 µM and the IC50 (BV-173) was > 0.008 µM. The IC50 (TE-12) was > 0.008 µM, the IC50 (TE-5) was > 0.008 µM and the IC50 (TE-8) was > 0.008 µM. The IC50 (TE-9) was > 0.008 µM, the IC50 (no-11) was > 0.008 µM and the IC50 (CGTH-W-1) was > 0.008 µM. The IC50 (COLO-320-HSR) was > 0.008 µM, the IC50 (COLO-668) was > 0.008 µM and the IC50 (COLO-684) was > 0.008 µM.
